Assay results taken from US10030020B2, “Spirocycle compounds and methods of making and using same” (Abide Therapeutics, Inc., priority 2016, dated 2018).
pIC50: −log10 of the molar value.

Legend:
[1] = molecular target: T1, FAAH (Mus musculus (Mouse), UniProt O08914); test: Mouse brain proteomes from inhibitor treated mice (oral gavage, sacrificed 4 h after administration, ABPP analysis), FAAH; format: in vivo, mouse (C57Bl/6J); conditions: 5 mg/kg oral gavage
Method in brief: (§1)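 Values give % inhibition in brain after a 5 mg/kg oral gavage dose to wild-type C57Bl/6J mice, with vehicle e.g. PEG400/Ethanol/PBS (7/2/1). Animals were killed 4 h post-dose and brain proteome activity was read by ABPP.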

[2] = molecular target: T2, ABHD6 (Mus musculus (Mouse), UniProt Q8R2Y0); test: In vitro competitive activity-based protein profiling (mouse brain membrane fraction or cell lysates), ABHD6 band; format: biochemical; conditions: mouse proteome; for inhibition at 1 µM: read-out: ABHD6 % Inh 1 μM (mouse); for pIC50: competitive ABPP
Method in brief: (§2)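 Competitive ABPP: proteome 1.0 mg/mL protein + inhibitor, 30 min, 37° C; FP-Rh probe (stock 50 μM in DMSO) added, 30 min, 37° C; SDS quench, SDS-PAGE, fluorescent band intensity read.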

[3] = molecular target: T3, MAGL (Mus musculus (Mouse), UniProt O35678); test: In vitro competitive activity-based protein profiling (mouse brain membrane fraction or cell lysates), MAGL band; format: biochemical; conditions: mouse proteome; for inhibition at 1 µM: read-out: MAGL % Inh 1 μM (mouse); for pIC50: competitive ABPP
Method: In Vitro Competitive Activity-Based Protein Profiling.
Proteomes (mouse brain membrane fraction or cell lysates) (50 μL, 1.0 mg/mL total protein concentration) were preincubated with varying concentrations of inhibitors at 37° C. After 30 min, FP—Rh (1.0 μL, 50 μM in DMSO) was added and the mixture was incubated for another 30 min at 37° C. Reactions were quenched with SDS loading buffer (50 μL-4×) and run on SDS-PAGE.

[4] = molecular target: T3, MAGL; test: Mouse brain proteomes from inhibitor treated mice (oral gavage, sacrificed 4 h after administration, ABPP analysis); format: in vivo, mouse (C57Bl/6J); conditions: 5 mg/kg oral gavage
Method in brief: as §1

[5] = molecular target: T2, ABHD6; test: Mouse brain proteomes from inhibitor treated mice (oral gavage, sacrificed 4 h after administration, ABPP analysis), ABHD6; format: in vivo, mouse (C57Bl/6J); conditions: 5 mg/kg oral gavage
Method in brief: as §1

[6] = molecular target: T1, FAAH; test: In vitro competitive activity-based protein profiling (mouse brain membrane fraction or cell lysates), FAAH band; format: biochemical; conditions: mouse proteome; for inhibition at 1 µM: read-out: FAAH % Inh 1 μM (mouse); for pIC50: competitive ABPP
Method in brief: as §2

T1 sequence (O08914 whole entry): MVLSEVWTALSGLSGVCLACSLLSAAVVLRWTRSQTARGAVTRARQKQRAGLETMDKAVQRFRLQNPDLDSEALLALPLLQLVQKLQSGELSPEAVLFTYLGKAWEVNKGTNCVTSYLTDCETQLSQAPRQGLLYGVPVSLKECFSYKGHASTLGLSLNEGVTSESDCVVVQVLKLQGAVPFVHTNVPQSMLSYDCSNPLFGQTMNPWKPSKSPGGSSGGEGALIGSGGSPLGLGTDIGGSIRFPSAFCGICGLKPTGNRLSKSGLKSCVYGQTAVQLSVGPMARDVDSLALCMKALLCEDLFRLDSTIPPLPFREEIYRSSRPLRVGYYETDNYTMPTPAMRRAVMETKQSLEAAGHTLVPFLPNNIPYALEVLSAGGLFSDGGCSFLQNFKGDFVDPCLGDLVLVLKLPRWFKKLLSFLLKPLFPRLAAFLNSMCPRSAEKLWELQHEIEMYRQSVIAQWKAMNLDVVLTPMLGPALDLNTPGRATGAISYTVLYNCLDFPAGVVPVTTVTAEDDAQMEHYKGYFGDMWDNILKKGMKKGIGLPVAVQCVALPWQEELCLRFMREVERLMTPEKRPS
T3 sequence (O35678 whole entry): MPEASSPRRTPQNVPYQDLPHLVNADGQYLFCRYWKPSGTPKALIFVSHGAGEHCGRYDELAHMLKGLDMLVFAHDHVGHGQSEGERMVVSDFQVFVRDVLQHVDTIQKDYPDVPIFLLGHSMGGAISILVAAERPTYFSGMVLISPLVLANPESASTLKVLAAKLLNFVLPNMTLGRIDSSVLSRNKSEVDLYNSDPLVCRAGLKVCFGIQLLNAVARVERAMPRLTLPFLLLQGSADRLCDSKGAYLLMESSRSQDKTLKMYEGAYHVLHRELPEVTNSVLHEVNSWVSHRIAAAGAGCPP
T2 sequence (Q8R2Y0 whole entry): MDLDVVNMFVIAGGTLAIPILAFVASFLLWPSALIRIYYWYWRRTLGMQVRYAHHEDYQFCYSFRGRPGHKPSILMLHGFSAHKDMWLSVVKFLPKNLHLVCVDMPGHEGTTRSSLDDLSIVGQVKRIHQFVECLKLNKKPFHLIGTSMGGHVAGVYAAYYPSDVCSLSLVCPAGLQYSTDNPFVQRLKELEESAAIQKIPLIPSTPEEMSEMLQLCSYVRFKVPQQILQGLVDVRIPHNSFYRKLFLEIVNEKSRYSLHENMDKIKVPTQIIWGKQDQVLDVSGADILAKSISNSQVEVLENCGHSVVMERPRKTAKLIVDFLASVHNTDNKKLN

Structure (SMILES)	FAAH % Inh 5 mg/kg (mouse) [1]	inhibition at 1 µM [2] [%]	pIC50 [2]	inhibition at 1 µM [3] [%]	pIC50 [3]	MAGL % Inh 5 mg/kg (mouse) [4]	ABHD6 % Inh 5 mg/kg (mouse) [5]	inhibition at 1 µM [6] [%]	pIC50 [6]
O=C(OC(C(F)(F)F)C(F)(F)F)N1CCC2(CCCN2Cc2ccc(Cl)cc2)CC1 [Example 62, 1,1,1,3,3,3-Hexafluoropropan-2-yl 1-(4-chlorobenzyl)-1,8-diazaspiro[4.5]decane-8-carboxylate]	## (## is equal to or greater than 25% but less than 75%)	< 25	< 6.00	> 75	> 7.00	### (### is ≥75%)	## (## is equal to or greater than 25% but less than 75%)	< 25	< 6.00
O=C(OC(C(F)(F)F)C(F)(F)F)N1CCC2(CCN(Cc3cccc(Cl)c3N3CCC(F)(F)CC3)C2)CC1 [Example 64, 1,1,1,3,3,3-Hexafluoropropan-2-yl 2-(3-chloro-2-(4,4-difluoropiperidin-1-yl)benzyl)-2,8-diazaspiro[4.5]decane-8-carboxylate]	# (# is <25%)	< 25	< 6.00	> 75	> 7.00	## (## is equal to or greater than 25% but less than 75%)	# (# is <25%)	< 25	< 6.00
O=C(OC(C(F)(F)F)C(F)(F)F)N1CCC2(CCN(Cc3cccc(Cl)c3N3CCC(F)CC3)C2)CC1 [Example 65, 1,1,1,3,3,3-Hexafluoropropan-2-yl 2-(3-chloro-2-(4-fluoropiperidin-1-yl)benzyl)-2,8-diazaspiro[4.5]decane-8-carboxylate]	# (# is <25%)	25 to 75	< 6.00	> 75	> 7.00	## (## is equal to or greater than 25% but less than 75%)	## (## is equal to or greater than 25% but less than 75%)	< 25	< 6.00
O=C(OC(C(F)(F)F)C(F)(F)F)N1CCC2(CCCN2Cc2ccc(C(F)(F)F)cc2N2CCCC2)CC1 [Example 66, 1,1,1,3,3,3-Hexafluoropropan-2-yl 1-(2-(pyrrolidin-1-yl)-4-(trifluoromethyl)benzyl)-1,8-diazaspiro[4.5]decane-8-carboxylate]	# (# is <25%)	< 25	< 6.00	> 75	> 7.00	## (## is equal to or greater than 25% but less than 75%)	# (# is <25%)	< 25	< 6.00
O=C(OC(C(F)(F)F)C(F)(F)F)N1CCC2(CCCN2Cc2ccc(C(F)(F)F)cc2N2CCOCC2)CC1 [Example 67, 1,1,1,3,3,3-Hexafluoropropan-2-yl 1-(2-morpholino-4-(trifluoromethyl)benzyl)-1,8-diazaspiro[4.5]decane-8-carboxylate]	# (# is <25%)	< 25	< 6.00	> 75	> 7.00	### (### is ≥75%)	# (# is <25%)	< 25	< 6.00
CCN1CCCc2cccc(CN3CCC4(CCN(C(=O)OC(C(F)(F)F)C(F)(F)F)CC4)C3)c21 [Example 71, 1,1,1,3,3,3-Hexafluoropropan-2-yl 2-((1-ethyl-1,2,3,4-tetrahydroquinolin-8-yl)methyl)-2,8-diazaspiro[4.5]decane-8-carboxylate]	# (# is <25%)	25 to 75	< 6.00	> 75	> 7.00	### (### is ≥75%)	## (## is equal to or greater than 25% but less than 75%)	< 25	< 6.00
O=C(OC(C(F)(F)F)C(F)(F)F)N1CCC2(CCN(Cc3ccc(C(F)(F)F)cc3N3CCCC3)C2)CC1 [Example 72, 1,1,1,3,3,3-Hexafluoropropan-2-yl 2-(2-(pyrrolidin-1-yl)-4-(trifluoromethyl)benzyl)-2,8-diazaspiro[4.5]decane-8-carboxylate]	# (# is <25%)	< 25	< 6.00	> 75	> 7.00	## (## is equal to or greater than 25% but less than 75%)	# (# is <25%)	< 25	< 6.00
O=C(OC(C(F)(F)F)C(F)(F)F)N1CCC2(CCCN2Cc2ccc(C(F)(F)F)cc2N2CC3CCC(C2)O3)CC1 [Example 73, 1,1,1,3,3,3-Hexafluoropropan-2-yl 1-(2-(8-oxa-3-azabicyclo[3.2.1]octan-3-yl)-4-(trifluoromethyl)benzyl)-1,8-diazaspiro[4.5]decane-8-carboxylate]	# (# is <25%)	< 25	< 6.00	> 75	> 7.00	## (## is equal to or greater than 25% but less than 75%)	# (# is <25%)	< 25	< 6.00
O=C(OC(C(F)(F)F)C(F)(F)F)N1CCC2(CCCN2Cc2ccc(Cl)cc2N2CCCCC2)CC1 [Example 74, 1,1,1,3,3,3-Hexafluoropropan-2-yl 1-(4-chloro-2-(piperidin-1-yl)benzyl)-1,8-diazaspiro[4.5]decane-8-carboxylate]	# (# is <25%)	25 to 75	< 6.00	> 75	> 7.00	## (## is equal to or greater than 25% but less than 75%)	# (# is <25%)	< 25	< 6.00
O=C(OC(C(F)(F)F)C(F)(F)F)N1CCC2(CCCN2Cc2ccc(Cl)cc2N2CC3CCC(C2)O3)CC1 [Example 75, 1,1,1,3,3,3-Hexafluoropropan-2-yl 1-(2-(8-oxa-3-azabicyclo[3.2.1]octan-3-yl)-4-chlorobenzyl)-1,8-diazaspiro[4.5]decane-8-carboxylate]	# (# is <25%)	< 25	< 6.00	> 75	> 7.00	### (### is ≥75%)	# (# is <25%)	< 25	< 6.00
O=C(OC(C(F)(F)F)C(F)(F)F)N1CCC2(CCCN2Cc2ccc(Cl)cc2N2CCCC2)CC1 [Example 76, 1,1,1,3,3,3-Hexafluoropropan-2-yl 1-(4-chloro-2-(pyrrolidin-1-yl)benzyl)-1,8-diazaspiro[4.5]decane-8-carboxylate]	# (# is <25%)	< 25	< 6.00	> 75	> 7.00	### (### is ≥75%)	# (# is <25%)	< 25	< 6.00
